Laboratory results taken from patent publication US20260008818A1, “CYCLIC PEPTIDE OR SALT THEREOF, AND USES THEREOF” (FUJIFILM Corporation, priority 2023, published 2026).
Bridge positions count the residues as written; N and C are the ends. Ends that are not written are not given here. COCH2 = acetyl group that carries the bridge

What follows are substances tested on Recombinant Human FGFR1 alpha (IIIc) Fc Chimera Protein (assay: Binding affinity of enzymatically synthesized cyclic peptide to FGFR by ELISA). Details: luminescence signal at reaction concentration 10 nmol/L, SEQ ID NO: 39 standardized to 1, enzyme synthesis product.
Outline: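 Graded A–D from luminescence at 10 nmol/L peptide, expressed relative to SEQ ID NO: 39 after subtracting wells lacking receptor. Read-out used anti-Myc antibody (2 h, RT) with chemiluminescent substrate, following 3 h RT binding of peptide to immobilized FGFR1α(IIIc)-Fc, 5 ng per well.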

| Evaluation result of binding affinity to FGFR | Substance |
| --- | --- |
| A (0.7 or more) | 148 (HCSYERLVFHGHEAPFRVK(COCH2)V; thioether 2-19 (inferred)) [compound 148] |
| A (0.7 or more) | 169 (HCSYERLQFWGHEAPFRVK(COCH2)V; thioether 2-19 (inferred)) [compound 169] |
| A (0.7 or more) | 190 (HCSYERLQFHGHHAPFRVK(COCH2)V; thioether 2-19 via Ac) [compound 190] |
| A (0.7 or more) | 80 (ECSYERLQFHGHEAPFRVKV; not fully specified; Description of Artificial Sequence: Cyclic peptide) [compound 80] |
| C (0.1 or more and less than 0.5) | 59 (HCSYEALQFHGHEAPFRVK(COCH2)V; thioether 2-19 (inferred)) [compound 59] |
| B (0.5 or more and less than 0.7) | 209 (HCSYERLQFHGHEAPFRHK(COCH2)V; thioether 2-19 via Ac; not fully specified) [compound 209] |
| C (0.1 or more and less than 0.5) | 341 (ACLPFLRIIIAGHWAPFLAK(COCH2)H; thioether 2-20) [compound 341] |
| A (0.7 or more) | 54 (HCYERLQFHGHEAPFRVK(COCH2)V; thioether 2-18 (inferred)) [compound 54] |
| B (0.5 or more and less than 0.7) | 172 (HCSYERLQFSGHEAPFRVK(COCH2)V; thioether 2-19 (inferred)) [compound 172] |
| C (0.1 or more and less than 0.5) | 119 (HCSYERLQFHGHEAPYRVK(COCH2)V; thioether 2-19 (inferred)) [compound 119] |
| B (0.5 or more and less than 0.7) | 239 (HK(COCH2)TWERLIFLGHIAPFLVCR; thioether 2-19 (inferred)) [compound 239] |
| A (0.7 or more) | 203 (HCSYERLQFHGHEAPFRIK(COCH2)V; thioether 2-19 via Ac; not fully specified) [compound 203] |
| C (0.1 or more and less than 0.5) | 206 (HCSYERLQFHGHEAPFRNK(COCH2)V; thioether 2-19 via Ac; not fully specified) [compound 206] |
| A (0.7 or more) | 236 (HK(COCH2)TWERLIFQGHIAPFWVCR; thioether 2-19 (inferred)) [compound 236] |
| B (0.5 or more and less than 0.7) | 45 (YCFQKLEFFGHLAPFLFK(COCH2)S; thioether 2-18 (inferred)) [compound 45] |
| A (0.7 or more) | 157 (HCSYERLHFHGHEAPFRVK(COCH2)V; thioether 2-19 (inferred)) [compound 157] |
| C (0.1 or more and less than 0.5) | 261 (QCQWNIYRHQWAPFWVIEK(COCH2)S; thioether 2-19 (inferred)) [compound 261] |
| C (0.1 or more and less than 0.5) | 357 (ACWLRHIYQGHQAPFLIWSTK(COCH2)Y; thioether 2-21) [compound 357] |
| A (0.7 or more) | 213 (HCSYERLQFHGHEAPFRVK(COCH2)Y; thioether 2-19 via Ac; not fully specified) [compound 213] |
| B (0.5 or more and less than 0.7) | 285 (HCSYKRLQFHGHEAPFRVK(COCH2)V; thioether 2-19 (inferred)) [compound 285] |
| C (0.1 or more and less than 0.5) | 49 (HCEWTQLIYYGFSAPYIVK(COCH2)R; thioether 2-19 (inferred)) [compound 49] |
| C (0.1 or more and less than 0.5) | 48 (HCKVQQLWLQGHYAPYWVK(COCH2)S; thioether 2-19 (inferred)) [compound 48] |
| C (0.1 or more and less than 0.5) | 63 (HCSYERLQFHGHEAAFRVK(COCH2)V; thioether 2-19 (inferred)) [compound 63] |
| C (0.1 or more and less than 0.5) | 319 (HCTWERLIFQGHIAPFWVK(COCH2)R; thioether 2-19 (inferred)) [compound 319] |
| A (0.7 or more) | 201 (HCSYERLQFHGHEAPFHVK(COCH2)V; thioether 2-19 via Ac; not fully specified) [compound 201] |
| C (0.1 or more and less than 0.5) | 227 (YK(COCH2)TWERLIFLGHIAPFWVCR; thioether 2-19 (inferred)) [compound 227] |
| A (0.7 or more) | 165 (HCSYERLQFIGHEAPFRVK(COCH2)V; thioether 2-19 (inferred)) [compound 165] |
| A (0.7 or more) | 62 (HCSYERLQFHGHAAPFRVK(COCH2)V; thioether 2-19 (inferred)) [compound 62] |

| Evaluation result of binding affinity to FGFR | Substance |
| --- | --- |
| B (0.5 or more and less than 0.7) | 263 (ICRLSWFGFKAPFWIVDSK(COCH2)Q; thioether 2-19 (inferred)) [compound 263] |
| A (0.7 or more) | 186 (HCSYERLQFHGHSAPFRVK(COCH2)V; thioether 2-19 via Ac) [compound 186] |
| C (0.1 or more and less than 0.5) | 243 (LCRYVKLRVGLHIAPFLIK(COCH2)S; thioether 2-19 (inferred)) [compound 243] |
| A (0.7 or more) | 81 (RCSYERLQFHGHEAPFRVKV; not fully specified; Description of Artificial Sequence: Cyclic peptide) [compound 81] |
| B (0.5 or more and less than 0.7) | 130 (HCSYSRLQFHGHEAPFRVK(COCH2)V; thioether 2-19 (inferred)) [compound 130] |
| A (0.7 or more) | 151 (HCSYERLWFHGHEAPFRVK(COCH2)V; thioether 2-19 (inferred)) [compound 151] |
| D (less than 0.1) | 35 (CDRTLLYYRLSC; disulfide 1-12 (inferred)) [compound 35] |
| B (0.5 or more and less than 0.7) | 205 (HCSYERLQFHGHEAPFRYK(COCH2)V; thioether 2-19 via Ac; not fully specified) [compound 205] |
| A (0.7 or more) | 129 (HCSYQRLQFHGHEAPFRVK(COCH2)V; thioether 2-19 (inferred)) [compound 129] |
| A (0.7 or more) | 89 (HCWYERLQFHGHEAPFRVKV; not fully specified; Description of Artificial Sequence: Cyclic peptide) [compound 89] |
| C (0.1 or more and less than 0.5) | 116 (HCSYERLQFHGHEAQFRVK(COCH2)V; thioether 2-19 (inferred)) [compound 116] |
| C (0.1 or more and less than 0.5) | 113 (HCSYERLQFHGHEGPFRVK(COCH2)V; thioether 2-19 (inferred)) [compound 113] |
| B (0.5 or more and less than 0.7) | 224 (HK(COCH2)SYERLQFHGHEAPFRVCV; thioether 2-19 (inferred)) [compound 224] |
| B (0.5 or more and less than 0.7) | 231 (HK(COCH2)TFERLIFLGHIAPFWVCR; thioether 2-19 (inferred)) [compound 231] |
| A (0.7 or more) | 138 (HCSYEVLQFHGHEAPFRVK(COCH2)V; thioether 2-19 (inferred)) [compound 138] |
| A (0.7 or more) | 134 (HCSYHRLQFHGHEAPFRVK(COCH2)V; thioether 2-19 (inferred)) [compound 134] |
| A (0.7 or more) | 185 (HCSYERLQFHGHQAPFRVK(COCH2)V; thioether 2-19 via Ac) [compound 185] |
| C (0.1 or more and less than 0.5) | 268 (VCRLSFWGHAAPFLSVK(COCH2)T; thioether 2-17 (inferred)) [compound 268] |
| A (0.7 or more) | 264 (ACQWGRWALQGHQVPFLTK(COCH2)I; thioether 2-19 (inferred)) [compound 264] |
| C (0.1 or more and less than 0.5) | 43 (SCWQQLVWFQFEAPFLVK(COCH2)V; thioether 2-18 (inferred)) [compound 43] |
| C (0.1 or more and less than 0.5) | 363 (TCSILKHPWGAPFLVK(COCH2)T; thioether 2-16) [compound 363] |
| C (0.1 or more and less than 0.5) | 160 (HCSYERLQVHGHEAPFRVK(COCH2)V; thioether 2-19 (inferred)) [compound 160] |
| C (0.1 or more and less than 0.5) | 273 (QCYVQLYVWGHPAPFYWDK(COCH2)N; thioether 2-19 (inferred)) [compound 273] |
| C (0.1 or more and less than 0.5) | 276 (QCYVQLYVWGHPAPFYWDK(COCH2)S; thioether 2-19 (inferred)) [compound 276] |
| A (0.7 or more) | 68 (PCSYERLQFHGHEAPFRVK(COCH2)V; thioether 2-19 (inferred)) [compound 68] |
| A (0.7 or more) | 90 (HCNYERLQFHGHEAPFRVKV; not fully specified; Description of Artificial Sequence: Cyclic peptide) [compound 90] |
| A (0.7 or more) | 309 (HCSYERLQFHGHEAPFRVK(COCH2)M; thioether 2-19 (inferred)) [compound 309] |
